According to patent US10292412B2, “High solubility natural sweetener compositions” (KRAFT FOODS GLOBAL BRANDS LLC, priority 2012, dated 2019):
Where “and” joins values, the source holds several entries; their conditions need not be identical. Equal values may be shown once.

Assay: Example 2: solubility of rebaudioside A in liquid concentrates with varying water, acid and alcohol
Assay type: physicochemical
Parameters: scale not given here
Description: Liquid concentrate formulations were prepared including varying levels of rebaudioside A, water, alcohol, and acid. The solubility was measured at various concentrations of each of the components and the results are included in the tables below: […]

Measured: Response 1 Solubility

C=C1C[C@@]23CC[C@H]4[C@@](C)(CCC[C@@]4(C)C(=O)O[C@@H]4O[C@H](CO)[C@@H](O)[C@H](O)[C@H]4O)[C@@H]2CC[C@]1(O[C@@H]1O[C@H](CO)[C@@H](O)[C@H](O[C@@H]2O[C@H](CO)[C@@H](O)[C@H](O)[C@H]2O)[C@H]1O[C@@H]1O[C@H](CO)[C@@H](O)[C@H](O)[C@H]1O)C3 [Reb A, rebaudioside A]
5: Water/Phosphoric Acid/Ethanol (190 Proof)/RebA 62.21/15.99/15.99/5.82 ml | Water/Phosphoric Acid/Ethanol (190 Proof)/RebA 92.44/0.00/0.00/7.56 ml | Water/Tartaric Acid/Ethanol (190 Proof)/RebA 84.92/3.00/8.00/4.08 ml | Water/Tartaric Acid/Ethanol (190 Proof)/RebA 92.44/0.00/0.00/7.56 ml | Water/acid/alcohol/RebA 96.67/0.00/0.00/3.33 ml | Water/acid/alcohol/RebA 97.01/0.00/0.00/2.99 ml | Water/acid/alcohol/RebA 97.34/0.00/0.00/2.66 ml | Water/acid/alcohol/RebA 97.67/0.00/0.00/2.33 ml | Water/acid/alcohol/RebA 98.00/0.00/0.00/2.00 ml | Water/acid/alcohol/RebA 98.34/0.00/0.00/1.66 ml | Water/acid/alcohol/RebA 98.67/0.00/0.00/1.33 ml | Water/acid/alcohol/RebA 99.00/0.00/0.00/1.00 ml
2: Water/Phosphoric Acid/Ethanol (190 Proof)/RebA 39.10/15.99/39.10/5.82 ml | Water/Tartaric Acid/Ethanol (190 Proof)/RebA 19.2674479/6.63/71.76/2.34 ml | Water/Tartaric Acid/Ethanol (190 Proof)/RebA 19.2674479/14.30/62.35/4.08 ml | Water/Tartaric Acid/Ethanol (190 Proof)/RebA 30.81333333/4.93/56.70/7.56 ml | Water/Tartaric Acid/Ethanol (190 Proof)/RebA 61.92/9.00/25.00/4.08 ml | Water/Tartaric Acid/Ethanol (190 Proof)/RebA 68.22072/24.22/0.00/7.56 ml | Water/Tartaric Acid/Ethanol (190 Proof)/RebA 71.18/16.00/7.00/5.82 ml | Water/Tartaric Acid/Ethanol (190 Proof)/RebA 77.0697916/18.85/0.00/4.08 ml | Water/Tartaric Acid/Ethanol (190 Proof)/RebA 99.3952/0.00/0.00/0.60 ml | Water/acid/alcohol/RebA 99.33/0.00/0.00/0.67 ml
4: Water/Phosphoric Acid/Ethanol (190 Proof)/RebA 61.63/0.00/30.81/7.56 ml | Water/Tartaric Acid/Ethanol (190 Proof)/RebA 65.44/8.00/19.00/7.56 ml | Water/Tartaric Acid/Ethanol (190 Proof)/RebA 65.4874479/6.63/22.06/5.82 ml | Water/Tartaric Acid/Ethanol (190 Proof)/RebA 75.92/3.00/17.00/4.08 ml | Water/Tartaric Acid/Ethanol (190 Proof)/RebA 76.18/11.00/7.00/5.82 ml | Water/Tartaric Acid/Ethanol (190 Proof)/RebA 78.92/5.00/12.00/4.08 ml
Insoluble: Water/Phosphoric Acid/Ethanol (190 Proof)/RebA 39.10/39.10/15.99/5.82 ml | Water/Phosphoric Acid/Ethanol (190 Proof)/RebA 47.96/47.96/0.00/4.08 ml | Water/Phosphoric Acid/Ethanol (190 Proof)/RebA 61.63/30.81/0.00/7.56 ml
3: Water/Tartaric Acid/Ethanol (190 Proof)/RebA 65.18/8.00/21.00/5.82 ml | Water/Tartaric Acid/Ethanol (190 Proof)/RebA 75.92/12.00/8.00/4.08 ml
3 and 2: Water/Phosphoric Acid/Ethanol (190 Proof)/RebA 99.40/0.00/0.00/0.60 ml
1: Water/Phosphoric Acid/Ethanol (190 Proof)/RebA 47.96/0.00/47.96/4.08 ml | Water/Phosphoric Acid/Ethanol (190 Proof)/RebA 66.26/0.00/33.13/0.60 ml | Water/Tartaric Acid/Ethanol (190 Proof)/RebA 18.70369333/21.97/51.77/7.56 ml | Water/Tartaric Acid/Ethanol (190 Proof)/RebA 30.1664432/27.48/41.75/0.60 ml | Water/Tartaric Acid/Ethanol (190 Proof)/RebA 33.13173333/0.00/66.26/0.60 ml | Water/Tartaric Acid/Ethanol (190 Proof)/RebA 33.2952179/19.41/41.47/5.82 ml | Water/Tartaric Acid/Ethanol (190 Proof)/RebA 37.40738667/29.15/25.88/7.56 ml | Water/Tartaric Acid/Ethanol (190 Proof)/RebA 39.9320216/13.74/45.72/0.60 ml | Water/Tartaric Acid/Ethanol (190 Proof)/RebA 47.9588/0.00/47.96/4.08 ml | Water/Tartaric Acid/Ethanol (190 Proof)/RebA 49.4338911/26.16/22.06/2.34 ml | Water/Tartaric Acid/Ethanol (190 Proof)/RebA 49.51702667/12.11/30.81/7.56 ml | Water/Tartaric Acid/Ethanol (190 Proof)/RebA 57.8023437/16.05/22.06/4.08 ml | Water/Tartaric Acid/Ethanol (190 Proof)/RebA 60.3328864/39.06/0.00/0.60 ml | Water/Tartaric Acid/Ethanol (190 Proof)/RebA 66.26346667/0.00/33.13/0.60 ml | Water/Tartaric Acid/Ethanol (190 Proof)/RebA 86.3744288/13.02/0.00/0.60 ml | Water/acid/alcohol/RebA 99.67/0.00/0.00/0.33 ml
